Source: BindingDB's records for patent US8969325 (Abbvie, 2015)

Molecular target: Transient receptor potential cation channel subfamily V member 1 (Homo sapiens, UniProt Q8NER1)
Assay: Activation Assay
Experimental: Expression plasmids encoding the hTRPV1 cDNA were transfected into HEK293 cells using Lipofectamine. Forty-eight hours after transfection, the neomycin-resistant cells were selected with growth medium containing 800 ug/mL Geneticin (Life Technologies, formerly Gibco BRL). Surviving individual colonies were isolated and screened for TRPV1 activity.

Chain of Transient receptor potential cation channel subfamily V member 1 (Q8NER1 whole entry): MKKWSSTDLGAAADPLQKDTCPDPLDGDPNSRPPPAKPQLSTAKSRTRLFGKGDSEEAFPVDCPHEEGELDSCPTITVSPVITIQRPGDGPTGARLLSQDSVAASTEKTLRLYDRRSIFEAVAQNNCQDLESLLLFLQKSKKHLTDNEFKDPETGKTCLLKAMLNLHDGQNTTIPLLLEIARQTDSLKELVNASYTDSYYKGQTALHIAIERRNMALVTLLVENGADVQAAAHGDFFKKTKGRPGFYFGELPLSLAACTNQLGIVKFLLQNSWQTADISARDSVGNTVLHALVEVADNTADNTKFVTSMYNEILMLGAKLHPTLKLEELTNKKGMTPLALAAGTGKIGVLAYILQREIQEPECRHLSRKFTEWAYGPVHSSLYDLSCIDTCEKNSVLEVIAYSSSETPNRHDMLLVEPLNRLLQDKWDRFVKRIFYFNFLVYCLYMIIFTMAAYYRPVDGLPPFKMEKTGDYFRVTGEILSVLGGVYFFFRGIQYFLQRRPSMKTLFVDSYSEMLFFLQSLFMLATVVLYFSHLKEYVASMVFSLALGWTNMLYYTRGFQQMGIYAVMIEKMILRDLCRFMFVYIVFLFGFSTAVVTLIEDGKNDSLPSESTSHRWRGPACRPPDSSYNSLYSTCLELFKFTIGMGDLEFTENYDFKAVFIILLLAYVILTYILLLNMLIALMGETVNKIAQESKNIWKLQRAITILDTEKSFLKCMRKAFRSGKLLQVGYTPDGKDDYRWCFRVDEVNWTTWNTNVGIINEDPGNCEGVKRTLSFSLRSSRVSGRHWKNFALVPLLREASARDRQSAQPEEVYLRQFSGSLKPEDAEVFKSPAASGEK

An IC50 of 0.021 µM was found for `CN1C(=O)NCc2c(NC(=O)N[C@@H]3CC(C)(C(F)F)Oc4cc(Cl)ccc43)cccc21` (stereo partly specified) [US8969325, 136] in this work.
